The OPERA property sets (Mansouri et al. 2018)
Peptide text beside a SMILES is read from it.

| Structure (SMILES) | logP |
| --- | --- |
| CNC(=O)C1C(C)CC2C3CCC4=CC(=O)C=CC4(C)C3(F)C(O)CC21C (configuration not stated) | 1.54 |
| COC(F)(F)C(Cl)Cl | 2.21 |
| CCNCc1cccnc1 | 0.76 |
| Brc1ccccc1Br | 3.64 |
| Cc1cc(N)nc(C)n1 | 0.39 |
| Nc1ccc(C(=O)Oc2ccccc2F)c(O)c1 | 3.29 |
| CCC1(c2ccccc2)C(=O)NCNC1=O | 0.91 |
| CCC(=O)OC(Cc1ccccc1)(c1ccccc1)C(C)CN(C)C (configuration not stated) | 4.18 |
| CCOC(=O)C(=Cc1ccc(O)c(OC)c1)C(=O)OCC | 2.89 |
| CC[C@H](C)[C@H](NC(=O)[C@@H](NC(C)=O)C(C)C)C(=O)NCC(N)=O (Ac-Val-Ile-Gly-NH2) | -0.45 |
| NC(=O)Nc1ccccc1Cl | 1.27 |
| CCCCCc1cn[nH]c1 | 2.96 |
| O=[N+]([O-])c1ccc(OC2OC(CO)C(O)C(O)C2O)cc1 (configuration not stated) | -0.44 |
| COCCCc1ccccc1 | 2.7 |
| COP(=S)(OC)Oc1ccc([N+](=O)[O-])cc1Cl | 3.58 |
| OCc1ccc2c(c1)OCO2 | 1.05 |
| CCCOC | 1.21 |
| COC(=O)c1cccc(O)c1 | 1.89 |
| C=CCSc1ccccc1 | 3.51 |
| CC(=O)CCCc1ccccc1 | 2.42 |
| C[N+](C)(C)c1ccccc1.[I-] | -2.74 |
| O=C(O)Cc1cccc(C(F)(F)F)c1 | 2.62 |
| CCCC(CC(C)=O)C(=O)O (configuration not stated) | 1.31 |
| C=C[C@@]12COC(=O)C(=C)[C@@H]1[C@H]1OC(=O)C(=C)[C@@H]1[C@@H](O)C2 | 0.31 |

| Structure (SMILES) | logP |
| --- | --- |
| N#C/C=C/C#N | -0.25 |
| CC(C)C(=O)Nc1ccccc1 | 1.95 |
| Cc1ccc(Cl)cc1 | 3.33 |
| c1ccc(N2CCCCC2)cc1 | 2.98 |
| CCC(C)C(NC(=O)C(CCCCN)NC(C)=O)C(=O)NC(Cc1ccccc1)C(N)=O (configuration not stated) | 0.65 |
| CCCCCCCCOC(=O)c1cc(O)c(O)c(O)c1 | 3.66 |
| O=C(Nc1ccccc1)NC1CC1 | 1.65 |
| c1ccc(-c2nc3ccccc3s2)cc1 | 4.26 |
| O=C(O)c1ccc(Br)cc1 | 2.86 |
| CCC(C)NC(=O)C=C(Cl)c1ccccc1 (configuration not stated) | 3.52 |
| CCCCOC(=O)Oc1cccc(C2(C(=O)CC)CCN(C)CC2)c1 | 2.42 |
| NC(=O)N(CCCCCCN(N=O)C(N)=O)N=O | 0.58 |
| CCCCCNc1nc(NC(C)C)nc(SC(F)F)n1 | 5.2 |
| CCSC(=O)N1CCCCCC1 | 3.21 |
| Nc1ccccc1F | 1.26 |
| Oc1ccc2ccccc2c1 | 2.7 |
| CCC1(CC(C)C(C)C)C(=O)NC(=O)NC1=O (configuration not stated) | 2.02 |
| CNC(=O)Oc1ccc(Cl)c(C)c1 | 2.57 |
| COCCNC(=S)C(F)(F)Cn1cnc([N+](=O)[O-])n1 | 0.66 |
| CCOC(=O)C(=Cc1cccc(F)c1)C(C)=O | 2.46 |
| FC(Cl)(Cl)Cl | 2.53 |
| OC(O)C(Cl)(Cl)Cl | 0.99 |
| Nc1ccc(C(=O)Oc2ccccc2Cl)c(O)c1 | 3.72 |
| COc1cc(C(C)(C)C)c(OC)cc1CC(C)N (configuration not stated) | 3.91 |

| Structure (SMILES) | logP |
| --- | --- |
| COC(=O)Nc1nc2ccccc2[nH]1 | 1.52 |
| Cc1ccc(C=C(C#N)C#N)cc1 | 2.4 |
| O=C1CCN(c2ccccc2)N1 | 0.89 |
| CCCCNC(=O)c1cccnc1 | 0.9 |
| Cc1ccc(/N=C/N(C)/C=N/c2ccc(C)cc2C)c(C)c1 | 5.5 |
| NC(=O)CCOc1ccccc1 | 0.8 |
| Nc1nc(N)c2nc(-c3ccccc3)c(N)nc2n1 | 0.98 |
| c1ccc2c(c1)Nc1ccccc1S2 | 4.15 |
| C[Se]c1ccccc1 | 2.87 |
| CC(=O)OCC(COC(C)=O)OC(C)=O | 0.25 |
| Nc1ccc(C2CCCCC2)cc1 | 3.65 |
| CCOc1cccc(C(=O)NP(=O)(N2CC2)N2CC2)c1 | 1.24 |
| Cc1nc(-c2ccccc2)c2ccccc2n1 | 3.1 |
| CCn1cc(C)c(=O)[nH]c1=O | -0.15 |
| Cc1ccc(NC(=O)N(C)C)cc1 | 1.33 |
| C=C(C)CC1(CC)C(=O)NC(=S)NC1=O | 2.19 |
| CN(C)N=Nc1nc[nH]c1C(N)=O | -0.24 |
| CCCOC(C)=O | 1.24 |
| CON(C)C(=O)Nc1ccc(Br)c(Cl)c1 | 3.09 |
| CCC1(c2ccccc2)CCC(=O)NC1=O (configuration not stated) | 1.9 |
| CNC(=O)Oc1ccc(C#N)cc1 | 0.95 |
| CNc1cnn(-c2cccc(C(F)(F)F)c2)c(=O)c1Cl | 2.3 |
| O=[N+]([O-])c1cccc2c1ccc[n+]2[O-] | 0.49 |
| COc1cc(NCc2ccc3nc(N)nc(N)c3c2C)cc(OC)c1OC | 2.55 |

| Structure (SMILES) | logP |
| --- | --- |
| CC(C)C(O)C(C(=O)O)c1ccc(-c2ccccc2)cc1 (configuration not stated) | 3.84 |
| CCOCc1ccccc1NC(=O)OCCN1CCCCC1 | 2.72 |
| O=C(NN1CCCCCC1)NS(=O)(=O)c1ccc(Cl)cc1 | 1.64 |
| O=C(NP(=O)(N1CC1)N1CC1)c1ccccc1I | 1.05 |
| Oc1c(Cl)cc(Cl)c(Cl)c1Cc1c(O)c(Cl)cc(Cl)c1Cl | 7.54 |
| CC(O)C(F)(F)F (configuration not stated) | 0.71 |
| CC(=O)Oc1ccccc1C#N | 1.33 |
| COc1ccccc1 | 2.11 |
| Nc1cccc(S(N)(=O)=O)c1 | -0.38 |
| C1=Cc2ccccc2C1 | 2.92 |
| Cc1ccc(O)c(-n2nc3ccccc3n2)c1 | 4.31 |
| CN(C)c1ccc2c(c1)C(c1ccccc1Cl)=NCC(=O)N2C | 2.72 |
| OCC1CC1c1ccccc1 (configuration not stated) | 1.95 |
| CC(=O)c1cnc2ccccc2c1 | 1.76 |
| CN(C)CCCc1ccco1 | 2.08 |
| COc1cc(C(O)CO)ccc1O (configuration not stated) | -0.58 |
| NCCCCC(=O)O | -2.63 |
| COc1ccc(CC(=O)O)cc1 | 1.42 |
| O=C(O)c1cccc(I)c1 | 3.13 |
| Cc1ccc(OC(=O)N(C)C)cc1 | 2.03 |
| O=C1C=CC(=NO)C=C1 | 1.08 |
| COc1ccc(C(=O)NN)cc1 | 0.25 |
| O=C1C=CC(=O)C=C1 | 0.2 |
| OCC(F)(F)C(F)(F)F | 1.23 |

| Structure (SMILES) | logP |
| --- | --- |
| COC(=O)c1ccccc1S(I)=C(N(C)C)N(C)C (configuration not stated) | -0.7 |
| CCN(CC)N=Nc1ccc([N+](=O)[O-])cc1 | 4.17 |
| O=C1CN=C(c2ccccc2C(F)(F)F)c2cc([N+](=O)[O-])ccc2N1 | 2.51 |
| O=[N+]([O-])c1ccccc1CO | 1.24 |
| Nc1ncc(Cc2ccccc2)c(N)n1 | 1.58 |
| O=C(Nc1ccccc1)NC1CCCCC1 | 2.77 |
| CCCC(=O)OCn1cnc(CSCCNC(=NC#N)NC)c1C | 1.6 |
| CC(C)OC(=O)Nc1ccccc1 | 2.6 |
| c1ccc(-c2cc3ccccc3[nH]2)nc1 | 3.33 |
| NS(=O)(=O)c1ccc([N+](=O)[O-])cc1 | 0.64 |
| Nc1cc2ccccc2nn1 | 1 |
| O=C(OCn1ncc2c(=O)[nH]cnc21)c1ccc(CN2CCOCC2)cc1 | 1.12 |
| CCC1(C(C)CC(C)O)C(=O)NC(=O)NC1=O (configuration not stated) | 0.35 |
| O=C1CCC(=O)N1c1ccccc1I | 0.8 |
| CCCOc1ccccc1 | 3.18 |
| N#CCC(=O)c1ccccc1 | 0.97 |
| NC(=O)C(Cl)Cl | 0.19 |
| C=CC1(C)OC(=O)N(c2cc(Cl)cc(Cl)c2)C1=O (configuration not stated) | 3.1 |
| Oc1ccc(-c2ccccc2)cc1 | 3.2 |
| Fc1c(F)c(F)c(F)c(F)c1F | 2.55 |
| Oc1cccc(Cl)c1Cl | 2.84 |
| CNc1ccccc1[N+](=O)[O-] | 2.18 |
| O=C1C(F)=C(N2CC2)C(=O)C(N2CC2)=C1N1CC1 | 0.14 |
| CC(=O)c1ccccn1 | 0.85 |

| Structure (SMILES) | logP |
| --- | --- |
| CCC(c1ccccc1)c1c(O)c2ccccc2oc1=O (configuration not stated) | 3.62 |
| COc1cccc(-c2cc3ccccn3c2)c1 | 4.14 |
| OCCCCCl | 0.85 |
| O=C(O)C=CC=Cc1ccccc1 | 3.15 |
| Oc1cccc(-c2ccccc2)c1 | 3.23 |
| COC1CC(OC2CCC3(C)C(CCC4C3CCC3(C)C(C5=CC(=O)OC5)C(OC(C)=O)CC43O)C2)OC(C)C1O (configuration not stated) | 2.53 |
| CN(C)c1ccc(Cl)nn1 | 0.98 |
| Nc1cn[nH]c1 | -1.09 |
| Nc1ccc(Cl)nn1 | 0.35 |
| Oc1ccc(Br)cc1Br | 3.22 |
| COc1cc(S(=O)(=O)CCN(C)Cc2ccccc2)cc(OC)c1OC | 2.18 |
| O=[N+]([O-])c1cnc(NC(CO)C(O)CO)cn1 (configuration not stated) | -0.89 |
| NC(C(=O)OCn1ncc2c(=O)[nH]cnc21)c1ccccc1 (configuration not stated) | -0.15 |
| CC1=NS(=O)(=O)c2ccccc2N1 | 0.29 |
| CCc1cc(OP(=S)(OC)OC)ccc1[N+](=O)[O-] | 3.74 |
| COc1ccco1 | 1.44 |
| FS(F)(F)(F)(F)c1ccccc1 | 3.36 |
| CC(=O)Oc1ccccc1C | 1.93 |
| O=C(O)COc1ccccc1Br | 2.04 |
| O=NN(Cc1ccccc1)c1ccccc1 | 3.38 |
| CC(=O)Nc1ccccc1O | 0.72 |
| O=C1C=CC(=O)C(Cl)=C1 | 0.84 |
| CCCCNC(=O)NO | 0.32 |
| Nc1cc[nH]c(=O)n1 | -1.73 |

| Structure (SMILES) | logP |
| --- | --- |
| O=C(O)c1ccccc1[N+](=O)[O-] | 1.46 |
| COC(=O)Cn1cnc([N+](=O)[O-])n1 | -0.38 |
| Oc1ccc(Cn2cc[nH]c2=S)cc1 | 1.02 |
| CCCCc1ccc(C(=O)O)cc1 | 3.97 |
| O=C(O)Cc1ccccc1Nc1ccccc1 | 3.49 |
| NC1CC1 | 0.07 |
| O=C(O)C1c2ccccc2Sc2ccccc21 | 2.57 |
| COc1ccc(C)cc1N | 1.74 |
| O=C(O)c1cc([N+](=O)[O-])ccc1Cl | 2.03 |
| CCC(=O)O[C@]1(c2ccccc2)CCN(C)C[C@@H]1C | 2.83 |
| O=C(OCC1CCC(n2cnc3c(=O)[nH]cnc32)O1)c1ccccc1 (configuration not stated) | 0.66 |
| CC1COC(=O)O1 (configuration not stated) | -0.41 |
| Cc1ccccc1C | 3.12 |
| CC(C)S[C@@H]1O[C@H](CO)[C@H](O)[C@H](O)[C@H]1O | -1.26 |
| C=CCN1CC[C@]23CCCC[C@H]2[C@H]1Cc1ccc(O)cc13 | 3.48 |
| O=[N+]([O-])C=Cc1ccc(Cl)cc1Cl | 3.26 |
| COC(=O)C(C)N(C(=O)c1ccco1)c1c(C)cccc1C (configuration not stated) | 2.61 |
| COc1cnc2ccccc2n1 | 2.31 |
| CC(=O)NCc1ccccc1 | 0.95 |
| CC(C)(C)[N+](=O)[O-] | 1.17 |
| CC1CCCCN1N=O (configuration not stated) | 0.71 |
| c1ccc(Nc2ccccc2)cc1 | 3.5 |
| CC(C)C(=O)NC(CO)C(O)c1ccc([N+](=O)[O-])cc1 (configuration not stated) | 0.79 |
